From patent publication US20240349733A1 (priority 2023, published 2024)
“Also recorded” adds a separate entry of the source. Where two headings read alike, the source gives them in different places. Ends that are not written are not given here.

What was measured:
CLas BamA protein = CLas BamA protein (Candidatus Liberibacter asiaticus, UniProt Q32TE9); format: binding; conditions: for Kd: read-out: KD, affinity constant
[1] = molecular target: CLas BamA protein (Candidatus Liberibacter asiaticus); test: BLI (BLItz), […], global fit, triplicate
R. grahamii [2] = format: binding, Rhizobium grahamii
R. galegae [3] = test: FITC-labeled peptide binding assay, fluorescence microscopy; set-up: species or system Rhizobium galegae
[4] = tested on: putative CLas cells in bacterial extracts from HLB-affected trees; format: binding, Candidatus Liberibacter asiaticus
L. crescens [5] = format: binding, Liberibacter crescens
E. coli = test: FITC-labeled peptide binding assay, fluorescence microscopy; set-up: species or system Escherichia coli
[6] = tested on: cells in healthy citrus tree extracts; format: binding
L. crescens [7] = tested on: L. crescens
CLas [8] = format: in vivo, Candidatus Liberibacter asiaticus; conditions: for Reduction in CLas titers compared to SOD2* or SOD12 alone: roots of 4 months old composite plants stably expressing the STAMP
CLas [9] = format: cell-based, Candidatus Liberibacter asiaticus; conditions: 72 hours; 25, 50, 100 μg/ml
R. grahamii [10] = format: cell-based, Rhizobium grahamii; conditions: 10, 25, 50, 100 μg/ml
R. galegae [11] = format: cell-based, Rhizobium galegae; conditions: N- or C-terminus orientation
[12] = BLI, pH 6.5 Tris buffer, mean ± SD
[13] = binders 16 μM, bacterial extracts from HLB-affected citrus trees
[14] = binders 16 μM, unrelated bacterium
[15] = especially at lower dosages (50 μg/ml)

NC(N)=NC(=O)CC(Nc1nc(N=C(N)N)nc(NC2CCC(NC(=O)Cn3nnc(-c4ccc(F)cc4)n3)CC2)n1)C1CC1 (centres unmarked) [MRL-494, reference compound]
Kd, rate of dissociation (CLas BamA protein; [12]): 0.0813 ± 1 s⁻¹
Kd (CLas BamA protein; [12]): 6970 nM

ACT56869.1_241-255 (peptide)
Kd [1]: 270 nM
koff [1]: 0.0117 s⁻¹
kon [1]: 49600 M⁻¹ s⁻¹

ACT56973.1_80-96 (peptide)
Kd [1]: 248 nM
koff [1]: 0.211 s⁻¹
kon [1]: 852000 M⁻¹ s⁻¹

ACT57020.1_94-118 (peptide)
Kd [1]: 209 nM
koff [1]: 0.0032 s⁻¹
kon [1]: 15900 M⁻¹ s⁻¹

DLHPQFQNLLKKSQN [ACT56869.1_241-255]
Ka, rate of association (CLas BamA protein; [12]): 49610 ± 1 M⁻¹ s⁻¹
Kd, rate of dissociation (CLas BamA protein; [12]): 0.01167 ± 1 s⁻¹
Kd (CLas BamA protein; [12]): 270 nM

MGINGFKFLSDIHHFCS [compound 22602, MGINGFKFLSDIHHFCS]
Binding of FITC-labeled binder to R. grahamii (R. grahamii [2]): consistent binding; also recorded: bound
Binding of FITC-labeled binder to R. galegae (R. galegae [3]): consistent binding; also recorded: bound
Binding of FITC-labeled binder to CLas cells [4]: consistent binding; also recorded: bound
Binding of FITC-labeled binder to L. crescens (L. crescens [5]): consistent binding; also recorded: bound
Binding of FITC-labeled binder to E. coli (E. coli): not to E. coli
Binding of FITC-labeled binder to cells in healthy citrus tree extracts [6]: not

QSFYYVSQKKKWFPVKF [ACT56973.1_80-96]
Ka, rate of association (CLas BamA protein; [12]): 852433 ± 1 M⁻¹ s⁻¹
Kd, rate of dissociation (CLas BamA protein; [12]): 0.2111 ± 1 s⁻¹
Kd (CLas BamA protein; [12]): 248 nM

RICESASYRFKGICVSRSNCANVCKNEGFPGGRCRGFRRRCLCYKHCG (cysteines drawn unpaired) [SOD12]
Mortality of L. crescens at lower dosage (L. crescens [7]): ineffective
Mortality rate of L. crescens (L. crescens [7]): 65-85%
CLas titers compared to empty vector controls (CLas [8]; in vivo): significantly lowered
Anti-CLas activity (relative CLas titers by qPCR) (CLas [9]): ineffective or moderately effective

SRNSSIALGLRRAYAVFNYFVARGI [compound 57020]
Ka, rate of association (CLas BamA protein; pH 6.5): 15857 ± 1 M⁻¹ s⁻¹
Kd, rate of dissociation (CLas BamA protein; pH 6.5): 0.0032 ± 1 s⁻¹
Kd (CLas BamA protein; pH 6.5): 209 nM
Binding of FITC-labeled binder to R. grahamii (R. grahamii [2]): consistent binding; also recorded: bound
In vitro growth inhibition of R. grahamii, efficacy compared to SOD12 alone (R. grahamii [10]): significantly greater efficacy
Binding of FITC-labeled binder to R. galegae (R. galegae [3]): consistent binding; also recorded: bound
Binding of FITC-labeled binder to CLas cells [4]: consistent binding; also recorded: bound
Binding of FITC-labeled binder to L. crescens (L. crescens [5]): consistent binding; also recorded: bound
Binding of FITC-labeled binder to E. coli (E. coli): not to E. coli
Binding of FITC-labeled binder to cells in healthy citrus tree extracts [6]: not

WHVTFY [#11]
Binding of FITC-labeled binder to R. grahamii (R. grahamii [2]; binders 16 μM): bound
Binding of FITC-labeled binder to R. galegae (R. galegae [3]; binders 16 μM): bound
Binding of FITC-labeled binder to CLas cells [4, 13]: bound
Binding of FITC-labeled binder to L. crescens (L. crescens [5]; binders 16 μM): bound
Binding of FITC-labeled binder to E. coli (E. coli; [14]): not to E. coli
Binding of FITC-labeled binder to cells in healthy citrus tree extracts ([6]; binders 16 μM): not

WHVTYF [#12]
Binding of FITC-labeled binder to R. grahamii (R. grahamii [2]; binders 16 μM): bound
Binding of FITC-labeled binder to R. galegae (R. galegae [3]; binders 16 μM): bound
Binding of FITC-labeled binder to CLas cells [4, 13]: bound
Binding of FITC-labeled binder to L. crescens (L. crescens [5]; binders 16 μM): bound
Binding of FITC-labeled binder to E. coli (E. coli; [14]): not to E. coli
Binding of FITC-labeled binder to cells in healthy citrus tree extracts ([6]; binders 16 μM): not

B1: SOD12-57020: STAMP, SEQ ID NO: 24; SOD12, GGSGGS linker, binder 57020 (peptide)
chain: RICESASYRFKGICVSRSNCANVCKNEGFPGGRCRGFRRRCLCYKHCGGGSGGSSRNSSIALGLRRAYAVFNYFVARGI
In vitro growth inhibition of R. grahamii, efficacy compared to SOD12 alone (R. grahamii [10]; [15]): significantly greater efficacy

B2: 22602-SoD2*: STAMP, SEQ ID NO: 25; binder 22602, GGSGGS linker, SOD2* (peptide)
chain: MGINGFKFLSDIHHFCSGGSGGSGIFSSRKCKTPSKTFKGICTRDSNCDTSCRYEGYPAGDCKGIRRRCLCCTHT
Reduction in CLas titers compared to SOD2* or SOD12 alone (CLas [8]): even greater reduction in CLas titers

B3: 57020-SoD2*: STAMP, SEQ ID NO: 27; binder 57020, GGSGGS linker, SOD2* (peptide)
chain: SRNSSIALGLRRAYAVFNYFVARGIGGSGGSGIFSSRKCKTPSKTFKGICTRDSNCDTSCRYEGYPAGDCKGIRRRCLCCTHT
Reduction in CLas titers compared to SOD2* or SOD12 alone (CLas [8]): even greater reduction in CLas titers

B4: 57020-SOD12: STAMP, SEQ ID NO: 23; binder 57020, GGSGGS linker, SOD12 (peptide)
chain: SRNSSIALGLRRAYAVFNYFVARGIGGSGGSRICESASYRFKGICVSRSNCANVCKNEGFPGGRCRGFRRRCLCYKHCG
In vitro growth inhibition of R. grahamii, efficacy compared to SOD12 alone (R. grahamii [10]; [15]): significantly greater efficacy
Efficacy in R. galegae compared with 22602-SOD12 and SOD12-57020 (binder orientation) (R. galegae [11]): lower efficacy

B5: 22602-SOD12: STAMP, SEQ ID NO: 21; binder 22602, GGSGGS linker, SOD12 (peptide)
chain: MGINGFKFLSDIHHFCSGGSGGSRICESASYRFKGICVSRSNCANVCKNEGFPGGRCRGFRRRCLCYKHCG
Reduction in CLas titers compared to SOD2* or SOD12 alone (CLas [8]): even greater reduction in CLas titers

B6: SOD12-22602: STAMP, SEQ ID NO: 22; SOD12, GGSGGS linker, binder 22602 (peptide)
chain: RICESASYRFKGICVSRSNCANVCKNEGFPGGRCRGFRRRCLCYKHCGGGSGGSMGINGFKFLSDIHHFCS
Efficacy in R. galegae compared with 22602-SOD12 and SOD12-57020 (binder orientation) (R. galegae [11]): lower efficacy
